# Patent US20070293576A1, “Pharmaceutical Methods, Dosing Regimes And Dosage Forms For The Treatment Of Alzheimer's Disease” (Myriad Genetics, Incorporated, priority 2003, published 2007)
# Like-named read-outs stand apart in the source and are kept apart here.
# Assays:
# [1] = molecular target: cytochrome P450 (CYP) 2C9 (Homo sapiens, UniProt P11712); conditions: cited from earlier work
# [2] = tested on: patients with Alzheimer's disease; conditions: clinical trials; rofecoxib at 25 mg daily; cited from earlier work
# [3] = tested on: COX; conditions: cited from earlier work
# [4] = tested on: Aβ42; conditions: transgenic mouse model; cited from earlier work
# [5] = Phase I pharmacokinetic study of R-flurbiprofen in plasma, one compartment model; assay type: in vivo, human; conditions: oral capsules, plasma Study Day 21, mean value one compartment model
# Method: The study is conducted as a double-blind, placebo-controlled, sequential, ascending dose level, multiple dose study, including men and women. Sixteen subjects are assigned to each of three sequential cohorts: 200 mg BID, 400 mg BID, and 800 mg BID of R-flurbiprofen, each with matched placebo BID. Each cohort contains a 3:1 ratio of assignment to active drug (n=12) versus placebo (n=4), resulting in 4 treatment groups of 12 subjects each after combining the 3 placebo groups. The study is balanced by site and stratified by gender. Subjects receive either R-flurbiprofen at the specified dose or a matched placebo orally for 21 days. Blood and urine samples are collected for laboratory safety data at Study Day 1, Study Day 21, and End of Study (30-Day Follow Up) visit. Blood and CSF are collected for pharmacokinetic and biomarker measures at Study Day 1 and after 21 days of treatment with the study drug.
# Subjects are instructed to take 1 capsule from Bottle A and 1 capsule from Bottle B 2 times per day (BID) for 20 days; Bottles A and B may contain R-flurbiprofen or placebo. The intraday dosing interval is approximately 12 hours, and the study drug is taken at approximately the same time each day. After 20 days (i.e., on Study Day 21), study participants undergo a pharmacokinetic study, as described below. Daily doses for the 4 groups of the study are: • 400 mg R-flurbiprofen (given as one 200 mg capsule and 1 placebo capsule BID) • 800 mg R-flurbiprofen (given as one 400 mg capsule and 1 placebo capsule BID) • 1600 mg R-flurbiprofen (given as two 400 mg capsules BID)
# Blood and urine samples are collected on Study Day 21 from fasted participants for clinical chemistries, hematology, coagulation parameters, and urinalysis. Blood samples are collected on Study Day 21 at 0.5, 1, 2, 4, and 6 hours, and, if possible, 8 and 24 hours, after administration of the final dose of study drug. The total amount of blood collected for the pharmacokinetic analyses is approximately 64 mL. All blood samples for PK/PD analysis are analyzed for both R-flurbiprofen and S-flurbiprofen, and the extent of bioinversion of R-flurbiprofen to S-flurbiprofen is assessed.
# The plasma concentration time profile of R-flurbiprofen is analyzed using nonlinear modeling, and preliminary estimates of PK parameters are obtained. Estimates include individual and mean half-life, clearance, AUC, Cmax, Tmax, and average steady-state concentration. Cerebrospinal fluid levels of R-flurbiprofen are summarized. If plasma concentrations over time are similar to those found in other patient populations, Bayesian estimation is used to estimate population PK parameters, allowing the PK parameters observed in this population to be evaluated in the context of data observed in additional clinical studies. Estimates include the mean and individual PK parameters as well as the magnitude of intersubject variability.
# A clinical trial was conducted as described in Example 5, above. Pharmacokinetic parameters were determined using WinNonlin® Version 4.0 (Pharsight, Mountain View, Calif.). A one compartment model with first order elimination and uniform weighting was used with WinNonlin estimated parameter boundaries for absorption rate (K01), elimination rate (K10) and volume (V_F). Individual and mean value parameters derived include K10 half-life, Cmax (maximum plasma concentration), Tmax (time of maximum plasma concentration), AUC (area under the plasma time and concentration curve), and Cl_F (clearance). The model calculates the concentration at time T as follows: C(T)=D*K01/V/(K01−K10)*(EXP(−K10*T)−EXP(−K01*T)) (1), where C(T) is concentration at time T; D=dose; V is volume; V_F is volume of distribution over systemic availability; K01 is the absorption rate constant; K10 is elimination rate constant; CL_F is clearance over systemic availability; and T is time. […]
# [6] = tested on: Aβ42; conditions: CHO cells; cited from earlier work
# [7] = tested on: patients having mild cognitive impairment; conditions: cited from earlier work
# [8] = 200 mg BID group, modeled as single 200 mg dose
# [9] = 400 mg BID group, modeled as single 400 mg dose
# [10] = 800 mg BID group, modeled as single 800 mg dose
# Sequence of cytochrome P450 (CYP) 2C9 (P11712 whole entry): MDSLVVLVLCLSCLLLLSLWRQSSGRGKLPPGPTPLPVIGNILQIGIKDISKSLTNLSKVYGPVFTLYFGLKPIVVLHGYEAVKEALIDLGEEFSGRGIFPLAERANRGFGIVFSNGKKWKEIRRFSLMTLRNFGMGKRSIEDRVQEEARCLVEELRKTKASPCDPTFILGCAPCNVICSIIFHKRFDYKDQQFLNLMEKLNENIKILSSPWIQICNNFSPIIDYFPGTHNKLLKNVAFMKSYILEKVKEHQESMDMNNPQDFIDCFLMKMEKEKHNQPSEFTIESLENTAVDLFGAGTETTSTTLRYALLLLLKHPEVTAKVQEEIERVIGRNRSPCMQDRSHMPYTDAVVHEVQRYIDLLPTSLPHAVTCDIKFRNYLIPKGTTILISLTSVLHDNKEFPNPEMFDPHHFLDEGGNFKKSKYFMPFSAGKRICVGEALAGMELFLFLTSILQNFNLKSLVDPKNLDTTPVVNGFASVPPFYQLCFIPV
compound,measurement,setting,value
"CC(C(=O)O)c1ccc(-c2ccccc2)c(F)c1 (racemic) [flurbiprofen, (R,S)-(2-fluoro-biphenylyl)propionic acid, reference compound]",inhibition of the metabolism of drugs that are substrates of CYP2C9,[1],inhibit the metabolism
COc1ccc2cc([C@H](C)C(=O)O)ccc2c1 [Naproxen],efficacy for treating AD,[2],failed to show efficacy
C[C@@H](C(=O)O)c1ccc(-c2ccccc2)c(F)c1 [R-flurbiprofen],inhibition of COX activity,[3],negligibly inhibits
same,effect on Aβ42,[4],lower Aβ42
same,AUC,[5]; [8],246 µg·h/mL
same,CL_F,[5]; [8],812 mL/h
same,K10_HL,[5]; [8],6.56 h
same,Tmax,[5]; [8],2.28 h
same,AUC,[5]; [9],577 µg·h/mL
same,CL_F,[5]; [9],693 mL/h
same,K10_HL,[5]; [9],8.04 h
same,Tmax,[5]; [9],1.58 h
same,AUC,[5]; [10],487 µg·h/mL
same,CL_F,[5]; [10],1642 mL/h
same,K10_HL,[5]; [10],5.90 h
same,Tmax,[5]; [10],0.86 h
same,inhibition of the metabolism of drugs that are substrates of CYP2C9,[1],inhibit the metabolism
same,effect on Aβ42,[6],lower Aβ42
CS(=O)(=O)c1ccc(C2=C(c3ccccc3)C(=O)OC2)cc1 [rofecoxib],efficacy for treating AD,[2],failed to show efficacy
same,prevention of the development of Alzheimer's disease,[7]; large prevention clinical trial,failed to prevent the development of Alzheimer's disease
same,patients who developed AD,"[7]; large prevention trial, 4.5% for placebo",6.4%
